The values below come from patent US20160214961A1, “NOVEL SALTS OF CRIZOTINIB AND THEIR PREPARATION” (SHILPA MEDICARE LIMITED, priority 2013, published 2016).

For data set [1] the following is noted: powder; cited from earlier work.
For data set [2] the following is noted: class IV = low solubility and low permeability; cited from earlier work.
The conditions of data set [3]: cited from earlier work.
A short description of data set [4]: Stability on handling and storage of the salts. In kind it is physicochemical. The conditions noted are these: storage for longer time; no significant or measurable change.

For `C[C@@H](Oc1cc(-c2cnn(C3CCNCC3)c2)cnc1N)c1c(Cl)ccc(F)c1Cl` [Crizotinib, (R)-3-[1-(2,6-Dichloro-3-fluorophenyl)ethoxy]-5-[1-(piperidin-4-yl)-1H-pyrazol-4-yl]pyridin-2-amine], the hygroscopicity entry in data set [1] is recorded as “non-hygroscopic”. In addition, in data set [2], the “Biopharmaceutics Classification System (BCS) class” value is “class IV”. The “solubility in acidic pH” value in data set [3] (acidic pH) is “highly soluble”. In addition, the solubility in water result in data set [3] (water) is on record as “insoluble”.

Consider `C[C@@H](Oc1cc(-c2cnn(C3CCNCC3)c2)cnc1N)c1c(Cl)ccc(F)c1Cl` [Crizotinib Ferulate], for which the “stability to handle and store for longer time (morphology and physicochemical characteristics)” value in data set [4] is “adequately stable”.
